Experimental data from patent publication US11053250B2, “Pyrrolo[1,2-b]pyridazine derivatives” (Gilead Sciences, Inc., priority 2018, dated 2021).

Columns and labels:
TNFα = test: IRAK4 Monocyte TNFα Cell Based Assay; details: cryopreserved human monocytes, LPS 50 pg/ml stimulation, TNFα by TR-FRET
Experimental: The cell suspension was then plated at a density of 5,000 cells/well onto black 384 well Greiner clear bottom plates. Plates were pre-spotted with test compounds and serially diluted in DMSO where 40 nL/well were delivered using the Echo 550 acoustic liquid dispenser (Labcyte®) for a final DMSO concentration of 0.1%. Plated cells were treated with compound for 1 hour at 37° C. Cells were then stimulated with 50 pg/ml of LPS (Sigma) excluding outside columns of plate used for unstimulated cell control wells. Cells were incubated for an additional 4 hours at 37° C. Cells were then spun out of the media and 5 μl of sample were taken and analyzed for total TNFα content using the TR-FRET Human TNFα detection system (CisBio). This system utilizes two labeled antibodies (cryptate and XL665) that bind to two different epitopes of the TNFα molecule and produce FRET signal proportional to the concentration of TNFα in the sample. Detection antibodies are mixed 50:50 and 5 μL were dispensed into each well. Plates were covered with clear seals and incubated at room temp overnight. The following morning plates were read using an Envision 2103 Multilabeled reader (PerkinElmer) with excitation/emission/FRET emission at 340 nm/615 nm/665 nm, respectively. Fluorescence intensities at 615 nm and 665 nm emission wavelengths were expressed as a ratio (665 nm/615 nm). Percent of control was calculated as follows: % Control=100×(RatioSample−Ratio0% stimulation)/(Ratio100% Stimulation−Ratio0% stimulation) where unstimulated cells (0% stimulation) were the negative control and stimulated cells (100% stimulation) were used as the positive control.

IRAK4 enzyme = IRAK4 enzyme (Homo sapiens (Human), UniProt Q9NWZ3); test: IRAK4 Biochemical Assay (TR-FRET/HTRF); details: 0.75 nM IRAK4, 500 μM ATP, STK1 peptide
Sequence of IRAK4 enzyme (Q9NWZ3 whole entry): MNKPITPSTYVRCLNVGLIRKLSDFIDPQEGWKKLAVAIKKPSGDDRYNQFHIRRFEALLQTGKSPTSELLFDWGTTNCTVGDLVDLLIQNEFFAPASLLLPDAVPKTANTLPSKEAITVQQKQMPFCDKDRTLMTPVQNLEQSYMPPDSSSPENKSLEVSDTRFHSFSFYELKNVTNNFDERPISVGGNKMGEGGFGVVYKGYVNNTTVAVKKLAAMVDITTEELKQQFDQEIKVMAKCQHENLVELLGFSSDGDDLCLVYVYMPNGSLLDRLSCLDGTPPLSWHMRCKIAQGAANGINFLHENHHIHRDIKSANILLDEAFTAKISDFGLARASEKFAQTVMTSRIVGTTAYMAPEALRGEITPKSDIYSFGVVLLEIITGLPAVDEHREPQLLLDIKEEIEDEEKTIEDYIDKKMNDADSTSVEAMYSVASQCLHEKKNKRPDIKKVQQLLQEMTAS
Experimental: IRAK4 enzyme (Carna Biosciences, Chuo-ku, Kobe, Japan) activity was measured by detecting phosphorylated peptide substrate formation using an antibody against the phosphorylated peptide substrate. This is a time-resolved fluorescence resonance energy transfer (TR-FRET) immunoassay, based on the STK1 KinEASE Assay (Cisbio, Bedford, Mass.). The assay was designed as a simple two-step, endpoint assay (a 5 μl enzyme reaction followed by 5 μl stop and detect Solution) performed in ProxiPlate-384 Plus plates (Perkin Elmer, Waltham, Mass.). Staurosporine, a non-selective kinase inhibitor was used as a positive control. Compounds diluted in DMSO were spotted into 384 well plates using a Labcyte® Echo 550 Liquid Handling System prior to addition of IRAK4 enzyme and peptide substrate. Reaction solutions were delivered using a Multi-Flo (Bio-Tek Instruments). The enzyme and peptide solution was incubated with compound for 15 minutes at room temp before the reaction was initiated by the addition of ATP. The standard 5 μl reaction mixture contained 500 μM ATP, 2 μM peptide (STK1 Peptide), 0.75 nM of IRAK4 in reaction buffer (50 mM HEPES, pH 7.0, 0.02% NaN3, 0.01% BSA, 0.1 mM Orthovanadate, 5 mM MgCl2, 0.025% NP-40, 1 mM DTT). After 120 min of incubation at room temperature, 5 μl of Stop and Detect Solution (1:100 Cryptate labeled anti-phosphorylated peptide antibody solution and 125 nM Tracer in a 50 mM HEPES pH 7.0 detection buffer containing sufficient EDTA) was added. The plate was then further incubated for 60 minutes at room temperature and read on Envision 2103 Multilabeled reader (PerkinElmer) with excitation/emission/FRET emission at 340 nm/615 nm/665 nm, respectively. Fluorescence intensities at 615 nm and 665 nm emission wavelengths were expressed as a ratio (665 nm/615 nm). Percentage of inhibition was calculated as below: % Inhibition=100×(RatioSample−Ratio0% Inhibition)/(Ratio100% Inhibition−Ratio0% Inhibition)
The 0% inhibition value comes from control wells lacking inhibitor. The 100% inhibition value comes from control wells containing a saturating amount of known inhibitor staurosporine.

SMILES | EC50 (TNFα; Monocyte) | IC50 (IRAK4 enzyme) | EC50 (TNFα)
CC(C)Nc1cc(-c2ccc3cc(C#N)cnn23)ncc1-c1cn(C2CCN(C(=O)OC(C)(C)C)CC2)nn1 [Compound 46, tert-butyl 4-(4-(6-(3-cyanopyrrolo[1,2-b]pyridazin-7-yl)-4-(isopropylamino)pyridin-3-yl)-1H-1,2,3-triazol-1-yl)piperidine-1-carboxylate] | 534 nM | 7 nM | –
CNc1cc(-c2ccc3cc(C#N)cnn23)ncc1-c1cn(C[C@@H](F)C(C)(C)O)nn1 [Compound 37, (R)-7-(5-(1-(2-fluoro-3-hydroxy-3-methylbutyl)-1H-1,2,3-triazol-4-yl)-4-(methylamino)pyridin-2-yl)pyrrolo[1,2-b]pyridazine-3-carbonitrile] | 28 nM | < 1 nM | –
CC(C)Nc1cc(-c2ccc3cc(C#N)cnn23)ncc1-c1cn(CCN2CCOCC2)nn1 [Compound 47, 7-(4-(isopropylamino)-5-(1-(2-morpholinoethyl)-1H-1,2,3-triazol-4-yl)pyridin-2-yl)pyrrolo[1,2-b]pyridazine-3-carbonitrile] | 33 nM | < 1 nM | –
COC(=O)NCC1CC(Nc2cc(-c3ccc4cc(C#N)cnn34)ncc2-c2cn(C3CC(CO)C3)nn2)C1 [Compound 9, methyl (((1R,3r)-3-((2-(3-cyanopyrrolo[1,2-b]pyridazin-7-yl)-5-(1-((1r,3R)-3-(hydroxymethyl)cyclobutyl)-1H-1,2,3-triazol-4-yl)pyridin-4-yl)amino)cyclobutyl)methyl)carbamate] | – | < 1 nM | 16 nM
COC(=O)NC[C@H]1C[C@H](Nc2cc(-c3ccc4cc(C#N)cnn34)ncc2-c2cn(C[C@@H](F)C(C)(C)O)nn2)C1 [Compound 39, methyl (((1R,3r)-3-((2-(3-cyanopyrrolo[1,2-b]pyridazin-7-yl)-5-(1-((R)-2-fluoro-3-hydroxy-3-methylbutyl)-1H-1,2,3-triazol-4-yl)pyridin-4-yl)amino)cyclobutyl)methyl)carbamate] | – | < 1 nM | 6 nM
CNc1cc(-c2ccc3cc(C#N)cnn23)ncc1-c1cn(CC(F)(F)F)nn1 [Compound 24, 7-(4-(methylamino)-5-(1-(2,2,2-trifluoroethyl)-1H-1,2,3-triazol-4-yl)pyridin-2-yl)pyrrolo[1,2-b]pyridazine-3-carbonitrile] | 302 nM | 11 nM | –
COC(=O)NC[C@H]1C[C@H](Nc2cc(-c3ccc4cc(C#N)cnn34)ncc2-c2cn(CCC(C)(C)O)nn2)C1 [Compound 30, methyl (((1r,3r)-3-((2-(3-cyanopyrrolo[1,2-b]pyridazin-7-yl)-5-(1-(3-hydroxy-3-methylbutyl)-1H-1,2,3-triazol-4-yl)pyridin-4-yl)amino)cyclobutyl)methyl)carbamate] | – | < 1 nM | 4 nM
COC(=O)NCC1CC(Nc2cc(-c3ccc4cc(C#N)cnn34)ncc2-c2cn(CC3CC(O)C3)nn2)C1 [Compound 6, methyl (((1R,3r)-3-((2-(3-cyanopyrrolo[1,2-b]pyridazin-7-yl)-5-(1-(((1r,3R)-3-hydroxycyclobutyl)methyl)-1H-1,2,3-triazol-4-yl)pyridin-4-yl)amino)cyclobutyl)methyl)carbamate] | – | < 1 nM | 19 nM
COC(=O)NC[C@H]1C[C@H](Nc2cc(-c3ccc4cc(C#N)cnn34)ncc2-c2nnn(C[C@@H](F)C(C)(C)O)c2F)C1 [Compound 5, methyl (((1R,3r)-3-((2-(3-cyanopyrrolo[1,2-b]pyridazin-7-yl)-5-(5-fluoro-1-((R)-2-fluoro-3-hydroxy-3-methylbutyl)-1H-1,2,3-triazol-4-yl)pyridin-4-yl)amino)cyclobutyl)methyl)carbamate] | – | 3 nM | 145 nM
COC(=O)NCC1CC(Nc2cc(-c3ccc4cc(C#N)cnn34)ncc2-c2cn(C3CCC(NC(=O)OC(C)(C)C)CC3)nn2)C1 [Compound 22, methyl (((1R,3r)-3-((5-(1-((1r,4R)-4-((tert-butoxycarbonyl)amino)cyclohexyl)-1H-1,2,3-triazol-4-yl)-2-(3-cyanopyrrolo[1,2-b]pyridazin-7-yl)pyridin-4-yl)amino)cyclobutyl)methyl)carbamate] | – | 1 nM | 187 nM
CC(C)(O)[C@H](F)Cn1cc(-c2cnc(-c3ccc4cc(C#N)cnn34)cc2NC23CCC(N4CCOC4=O)(CC2)CC3)nn1 [Compound 35, (R)-7-(5-(1-(2-fluoro-3-hydroxy-3-methylbutyl)-1H-1,2,3-triazol-4-yl)-4-((4-(2-oxooxazolidin-3-yl)bicyclo[2.2.2]octan-1-yl)amino)pyridin-2-yl)pyrrolo[1,2-b]pyridazine-3-carbonitrile] | 3 nM | < 1 nM | –
COC(=O)NCC1CC(Nc2cc(-c3ccc4cc(C#N)cnn34)ncc2-c2cn(C3CC(O)C3)nn2)C1 [Compound 7, methyl (((1R,3r)-3-((2-(3-cyanopyrrolo[1,2-b]pyridazin-7-yl)-5-(1-((1r,3R)-3-hydroxycyclobutyl)-1H-1,2,3-triazol-4-yl)pyridin-4-yl)amino)cyclobutyl)methyl)carbamate] | – | < 1 nM | 12 nM
COC(=O)NC[C@H]1C[C@H](Nc2cc(-c3ccc4cc(C#N)cnn34)ncc2-c2cn(C(F)F)nn2)C1 [Compound 4, methyl (((1r,3r)-3-((2-(3-cyanopyrrolo[1,2-b]pyridazin-7-yl)-5-(1-(difluoromethyl)-1H-1,2,3-triazol-4-yl)pyridin-4-yl)amino)cyclobutyl)methyl)carbamate] | – | 2 nM | 130 nM

The next lines start with the values.

EC50 (TNFα; Monocyte) | IC50 (IRAK4 enzyme) | EC50 (TNFα) | SMILES
132 nM | < 1 nM | – | CC(C)Nc1cc(-c2ccc3cc(C#N)cnn23)ncc1-c1cn(C(C)C)nn1 [Compound 51, 7-(5-(1-isopropyl-1H-1,2,3-triazol-4-yl)-4-(isopropylamino)pyridin-2-yl)pyrrolo[1,2-b]pyridazine-3-carbonitrile]
1120 nM | 14 nM | – | CC(C)Nc1cc(-c2ccc3cc(C#N)cnn23)ncc1-c1cn(C23CC(C2)C3)nn1 [Compound 57, 7-(5-(1-(bicyclo[1.1.1]pentan-1-yl)-1H-1,2,3-triazol-4-yl)-4-(isopropylamino)pyridin-2-yl)pyrrolo[1,2-b]pyridazine-3-carbonitrile]
95 nM | 3 nM | – | CC(C)Nc1cc(-c2ccc3cc(C#N)cnn23)ncc1-c1cn(-c2cccnc2)nn1 [Compound 52, 7-(4-(isopropylamino)-5-(1-(pyridin-3-yl)-1H-1,2,3-triazol-4-yl)pyridin-2-yl)pyrrolo[1,2-b]pyridazine-3-carbonitrile]
125 nM | 2 nM | – | COCCn1cc(-c2cnc(-c3ccc4cc(C#N)cnn34)cc2NC(C)C)nn1 [Compound 48, 7-(4-(isopropylamino)-5-(1-(2-methoxyethyl)-1H-1,2,3-triazol-4-yl)pyridin-2-yl)pyrrolo[1,2-b]pyridazine-3-carbonitrile]
58 nM | < 1 nM | – | CC(C)Nc1cc(-c2ccc3cc(C#N)cnn23)ncc1-c1cn(C2CCOCC2)nn1 [Compound 59, 7-(4-(isopropylamino)-5-(1-(tetrahydro-2H-pyran-4-yl)-1H-1,2,3-triazol-4-yl)pyridin-2-yl)pyrrolo[1,2-b]pyridazine-3-carbonitrile]
171 nM | 2 nM | – | CC(C)Nc1cc(-c2ccc3cc(C#N)cnn23)ncc1-c1cn(C2COC2)nn1 [Compound 53, 7-(4-(isopropylamino)-5-(1-(oxetan-3-yl)-1H-1,2,3-triazol-4-yl)pyridin-2-yl)pyrrolo[1,2-b]pyridazine-3-carbonitrile]
